Measured values reported in PubChem BioAssay (NCI).
Values joined by “and” are separate entries in the source; they are usually repeats but may differ in a detail not shown here. Equal values may be shown once.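 The compound was tested at five concentrations on cells cultured in 96-well plates, with a 48-hour exposure period. Here, GI50 denotes the concentration required for 50% inhibition of growth. TGI: concentration producing complete growth inhibition.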

What was measured:
Test in all cases: growth of human tumour cells (NCI), 48 h
KM12 colon = system: KM12 colon
SR leukemia = system: SR leukemia
OVCAR-4 ovarian = system: OVCAR-4 ovarian
A549 NSCLC = system: A549 NSCLC
NCI-H226 lung = system: NCI-H226 lung
SK-OV-3 ovarian = system: SK-OV-3 ovarian
IGROV1 ovarian = system: IGROV1 ovarian

| SMILES | TGI (KM12 colon) | TGI (SR leukemia) | TGI (OVCAR-4 ovarian) | TGI (A549 NSCLC) [µM] | TGI (NCI-H226 lung) | TGI (SK-OV-3 ovarian) [µM] | TGI (IGROV1 ovarian) | GI50 (SR leukemia) | GI50 (NCI-H226 lung) | GI50 (SK-OV-3 ovarian) |
| --- | --- | --- | --- | --- | --- | --- | --- | --- | --- | --- |
| CN(C)CCN1N=Nc2cccc3cccc1c23 | > 100 µM | 40.2 µM | > 100 µM | > 100 | > 100 µM | > 100 | > 100 µM |  |  |  |
| Cc1c2cc[n+](C)cc2c(C)c2c1[nH]c1ccc(OC(C)C)cc12 | 13.3 µM and 11.4 µM | 10.5 µM and > 54.3 µM | 17.4 µM and > 45.2 µM | > 100 | 2.42 µM and 6.12 µM | > 85.5 | 22.3 µM and 29.5 µM | 2.34 µM and 9.55 µM | 0.395 µM and 1.07 µM | 1.98 µM and 4.47 µM |
| Nc1ccc(CCN2CCN(c3cccc(C(F)(F)F)c3)CC2)cc1 | > 100 µM | > 100 µM |  | > 100 | > 100 µM | > 100 | > 100 µM |  |  |  |
| COc1cccc(/C=C\c2cc(OC)c(OC)c(OC)c2)c1 | > 100 µM | 27.5 µM | > 100 µM | > 100 | 83.9 µM | > 100 | > 100 µM |  |  |  |
| CCC12CCC(O)C1N(C)CCC2Sc1ccccc1 (stereo not given) | > 100 µM |  | > 100 µM | > 100 | > 100 µM | > 100 | > 100 µM |  |  |  |
| COCC1N=C(c2ccc(OC)c(OCc3ccccc3)c2OC)O[C@H]1c1ccccc1 (stereo not given in full) | 96.2 µM |  | > 100 µM | > 100 | 81.1 µM | 96.1 | > 100 µM |  |  |  |
| O=C(Nc1ccccc1)O/N=C1/CCCC/C1=C\c1ccccc1 |  | 43.6 µM | 30.3 µM |  | 49.6 µM | 35.6 | 17.7 µM |  |  |  |
| O=[N+]([O-])c1ccc2c(c1)OCCOCCOc1ccc([N+](=O)[O-])cc1OCCOCCO2 | > 100 µM | > 100 µM | > 100 µM | > 100 | > 100 µM | > 100 | > 100 µM |  |  |  |
| COC(=O)C1Cc2c(n(C)c3ccccc23)C(c2ccccc2)N1 (stereo not given) | > 100 µM | > 100 µM | > 100 µM | > 100 | > 100 µM | > 100 | > 100 µM |  |  |  |
| C=CC[P@@]1(=O)O[C@H](c2ccccc2)C(C)N1C(C)C (stereo not given in full) | > 100 µM | > 100 µM | > 100 µM | > 100 | > 100 µM | > 100 | > 100 µM |  |  |  |
| Cc1cc(N(CCC#N)CCC#N)ccc1N=Nc1ccccc1[N+](=O)[O-] | > 100 µM |  | > 100 µM | > 100 | > 100 µM | > 100 | > 100 µM |  |  |  |
| NC(=O)c1csc(C2O[C@@H](COP(=O)(O)OP(=O)(O)OC[C@H]3OC(n4cnc5c(N)ncnc54)[C@H](O)[C@@H]3O)[C@H](O)[C@@H]2O)n1 (stereo not given in full) | > 100 µM |  | > 100 µM | > 100 | > 100 µM | > 100 | > 100 µM |  |  |  |
